# Experimental data published in US12290519B2, “Anti-inflammatory coupling compound drug, and preparation method therefor and use thereof” (COVAL BIOPHARMA (SHANGHAI) CO., LTD., priority 2021, dated 2025).
# Assay: Hydrolysis rate / drug release rate of the compounds (release of JAK inhibitor, HPLC)
# Assay type: physicochemical
# Details: % release of JAK inhibitor from sample in acetonitrile/water=7/3 (v/v), 37° C. constant temperature shaker, sampled days 1-4, HPLC
# How it was run: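 Compounds (about 5 mg per 20 mL) were dissolved in acetonitrile/water 7/3 (v/v) and held sealed at 37° C in a shaker, sampled on days 0, 1, 2, 3 and 4. Released JAK inhibitor was quantified by HPLC peak area against a 0.0002–0.08 mg/mL reference curve and expressed as % release corrected for molecular weights.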
row,SMILES,Release Rate (%/day)
1,"Cc1c(Cl)cccc1Nc1ccccc1C(=O)OCn1ccc2c(N(C)[C@H]3CN(C(=O)CC#N)CC[C@H]3C)ncnc21 [Ex. 66, (4-(((3R, 4R)-1-(2-cyanoacetyl)-4-methylpiperidin-3-yl) (methyl)amino)-7H-pyrrolo [2,3-d]pyrimidin-7-yl) methyl 2-((3-chloro-2-methylphenyl)amino) benzoate]",0.06 %/day
2,"CC(=O)Nc1ccc(CC(=O)OCn2ccc3c(N(C)[C@H]4CN(C(=O)CC#N)CC[C@H]4C)ncnc32)cc1 [Ex. 59, (4-(((3R, 4R)-1-(2-cyanoacetyl)-4-methylpiperidin-3-yl) (methyl)amino)-7H-pyrrolo [2,3-d]pyrimidin-7-yl) methyl 2-(4-acetamidophenyl) acetate]",0.15 %/day
3,"CCc1cccc2c3c([nH]c12)C(CC)(CC(=O)n1ccc2c(N(C)C4CCC(CS(=O)(=O)NC)CC4)ncnc21)OCC3 (stereo not drawn) [Ex. 37, 1-((Trans)-4-((7-(2-(1,8-diethyl-1,3,4,9-tetrahydropyrano [3,4-b]indol-1-yl)acetyl)-7H-pyrrolo [2,3-d]pyrimidin-4-yl) (methyl)amino)cyclohexyl)-N-methyl methanesulfonamide]",1.05 %/day
4,"CCS(=O)(=O)N1CC(CC#N)(n2cc(-c3ncnc4c3ccn4C(=O)Cc3ccc(NC(C)=O)cc3)cn2)C1 [Ex. 24, N-(4-(2-(4-(1-(3-(cyanomethyl)-1-(ethylsulfonyl)azetidin-3-yl)-1H-pyrazol-4-yl)-7H-pyrrolo [2,3-d]pyrimidin-7-yl)-2-oxoethyl)phenyl) acetamide]",5.96 %/day
5,"CC(C(=O)OCn1ccc2c(N(C)[C@H]3CN(C(=O)CC#N)CC[C@H]3C)ncnc21)c1cccc(Oc2ccccc2)c1 (stereo partly drawn) [Ex. 52, (4-(((3R, 4R)-1-(2-cyanoacetyl)-4-methylpiperidin-3-yl) (methyl)amino)-7H-pyrrolo [2,3-d]pyrimidin-7-yl) methyl 2-(3-phenoxyphenyl) propanoate]",0.1 %/day
6,"CNS(=O)(=O)CC1CCC(N(C)c2ncnc3c2ccn3C(=O)C(C)c2cccc(C(=O)c3ccccc3)c2)CC1 (stereo not drawn) [Ex. 38, 1-((Trans)-4-((7-(2-(3-benzoylphenyl)propanoyl)-7H-pyrrolo [2,3-d]pyrimidin-4-yl) (methyl)amino)cyclohexyl)-N-methyl methanesulfonamide]",18.42 %/day
7,"CC(C(=O)n1ccc2c(N(C)[C@H]3CN(C(=O)CC#N)CC[C@H]3C)ncnc21)c1cccc(Oc2ccccc2)c1 (stereo partly drawn) [Ex. 10, 3-((3R,4R)-4-methyl-3-(methyl (7-(2-(3-phenoxyphenyl)propanoyl)-7H-pyrrolo [2,3-d]pyrimidin-4-yl)amino)piperidin-1-yl)-3-oxopropanenitrile]",11.25 %/day
8,"CCC(C(=O)OCn1ccc2c(-c3cnn([C@H](CC#N)C4CCCC4)c3)ncnc21)c1ccc(N2Cc3ccccc3C2=O)cc1 (stereo partly drawn) [Ex. 105, (4-(1-((R)-2-cyano-1-cyclopentylethyl)-1H-pyrazol-4-yl)-7H-pyrrolo [2,3-d]pyrimidin-7-yl) methyl 2-(4-(1-oxoisoindolin-2-yl)phenyl) butanoate]",0.17 %/day
9,"CNS(=O)(=O)CC1CCC(N(C)c2ncnc3c2ccn3COC(=O)Cc2c(C)n(C(=O)c3ccc(Cl)cc3)c3ccc(OC)cc23)CC1 (stereo not drawn) [Ex. 116, (4-(Methyl ((trans)-4-((N-methylsulfamoyl)methyl)cyclohexyl)amino)-7H-pyrrolo [2,3-d]pyrimidin-7-yl) methyl 2-(1-(4-chlorobenzoyl)-5-methoxy-2-methyl-1H-indol-3-yl) acetate]",0.42 %/day
10,"CC(=O)Nc1ccc(CC(=O)n2ccc3c(-c4cnn([C@H](CC#N)C5CCCC5)c4)ncnc32)cc1 [Ex. 78, (R)—N-(4-(2-(4-(1-(2-cyano-1-cyclopentylethyl)-1H-pyrazol-4-yl)-7H-pyrrolo [2,3-d]pyrimidin-7-yl)-2-oxoethyl)phenyl) acetamide]",6.27 %/day
11,"CC(C)Cc1ccc([C@H](C)C(=O)OCn2ccc3c(N4CC[C@]5(C4)[C@@H](C)CN5C(=O)CC#N)ncnc32)cc1 [Ex. 144, (4-((3S, 4R)-1-(2-cyanoacetyl)-3-methyl-1,6-diazaspiro [3.4]octan-6-yl)-7H-pyrrolo [2,3-d]pyrimidin-7-yl) methyl (S)-2-(4-isobutylphenyl) propanoate]",0.05 %/day
12,"CC[C@@H]1CN(C(=O)NCC(F)(F)F)C[C@@H]1c1cnc2cnc3c(ccn3C(=O)Cc3c(C)n(C(=O)c4ccc(Cl)cc4)c4ccc(OC)cc34)n12 [Ex. 133, (3R, 4S)-3-(3-(2-(1-(4-Chlorobenzoyl)-5-methoxy-2-methyl-1H-indol-3-yl)acetyl)-3H-imidazo [1,2-a]pyrrolo [2,3-e]pyrazin-8-yl)-4-ethyl-N-(2,2,2-trifluoroethyl) pyrrolidine-1-carboxamide]",10.13 %/day
13,"CC[C@@H]1CN(C(=O)NCC(F)(F)F)C[C@@H]1c1cnc2cnc3c(ccn3C(=O)C(C)c3ccc(-c4ccccc4)c(F)c3)n12 (stereo partly drawn) [Ex. 125, (3S, 4R)-3-ethyl-4-(3-(2-(2-fluoro-[1, 1′-biphenyl]-4-yl)propanoyl)-3H-imidazo [1,2-a]pyrrolo [2,3-e]pyrazin-8-yl)-N-(2,2,2-trifluoroethyl) pyrrolidine-1-carboxamide]",6.17 %/day
14,"CCS(=O)(=O)N1CC(CC#N)(n2cc(-c3ncnc4c3ccn4COC(=O)[C@@H](C)c3ccc(CC(C)C)cc3)cn2)C1 [Ex. 60, Methyl (4-(1-(3-(cyanomethyl)-1-(ethylsulfonyl)azetidin-3-yl)-1H-pyrazol-4-yl)-7H-pyrrolo [2,3-d]pyrimidin-7-yl) (S)-2-(4-isobutylphenyl) propanoate]",<0.01 %/day
15,"COc1ccc2cc([C@H](C)C(=O)n3ccc4c(N(C)[C@H]5CN(C(=O)CC#N)CC[C@H]5C)ncnc43)ccc2c1 [Ex. 6, 3-((3R, 4R)-3-((7-((S)-2-(6-methoxynaphthalen-2-yl)propanoyl)-7H-pyrrolo[2,3-d]pyrimidin-4-yl) (methyl)amino)-4-methylpiperidin-1-yl)-3-oxopropanenitrile]",9.82 %/day
16,"CC(=O)Nc1ccc(CC(=O)n2ccc3c(N(C)[C@H]4CN(C(=O)CC#N)CC[C@H]4C)ncnc32)cc1 [Ex. 13, N-(4-(2-(4-(((3R, 4R)-1-(2-cyanoacetyl)-4-methylpiperidin-3-yl) (methyl)amino)-7H-pyrrolo[2,3-d]pyrimidin-7-yl)-2-oxoethyl)phenyl)acetamide]",12.18 %/day
17,"CNS(=O)(=O)C[C@H]1CC[C@H](N(C)c2ncnc3c2ccn3C(=O)c2ccccc2Nc2cccc(C)c2C)CC1 [Ex. 43, 1-((trans)-4-((7-(2-((2,3-dimethylphenyl)amino)benzoyl)-7H-pyrrolo [2,3-d]pyrimidin-4-yl) (methyl)amino)cyclohexyl)-N-methyl methanesulfonamide]",2.99 %/day
18,"COc1ccc2cc([C@H](C)C(=O)OCn3ccc4c(N(C)[C@H]5CN(C(=O)CC#N)CC[C@H]5C)ncnc43)ccc2c1 [Ex. 48, 4-(((3R, 4R)-1-(2-cyanoacetyl)-4-methylpiperidin-3-yl) (methyl)amino)-7H-pyrrolo [2,3-d] pyrimidin-7-yl) methyl (S)-2-(6-methoxynaphthalen-2-yl) propanoate]",0.03 %/day
19,CC(C)Cc1ccc([C@H](C)C(=O)OCn2ccc3c(N(C)[C@H]4CN(C(=O)CC#N)CC[C@H]4C)ncnc32)cc1 [Ex. 3],0.05 %/day
